Source: ChEMBL document CHEMBL1129138, “Nucleosides and nucleotides. 152. 1-(3-C-Ethynyl--D-ribo-pentofuranosyl)uracil as a broad spectrum antitumor nucleoside” (Bioorg Med Chem Lett, 1996)

Assays:
SNU-C2A = assay: Compound was tested for its inhibitory effect on the growth of […] tumor cell line from colon.; format: functional, cell-based; settings: Homo sapiens
H-81 [1] = assay: Compound was tested for its percentage inhibitory effect on the growth of H-81 tumor cell line from stomach at an iv dose of 2 mg/kg x10.; format: functional, Homo sapiens
T-24 = assay: Compound was tested for its inhibitory effect on the growth of T24 tumor cell line from bladder.; format: functional, cell-based; settings: Homo sapiens
NUGC-3 = assay: Compound was tested for its inhibitory effect on the growth of NUGC-3 tumor cell line from stomach.; format: functional, cell-based; settings: Homo sapiens
KM12 [2] = assay: Compound was tested for its percentage inhibitory effect on the growth of KM12C tumor cell line from colon at an iv dose of 2 mg/kg x10.; format: functional, Homo sapiens
PANC-1 = assay: Compound was tested for its inhibitory effect on the growth of PANC-1 tumor cell line from pancreas.; format: functional, cell-based; settings: Homo sapiens
AZ-521 cell line [3] = assay: Compound was tested for its inhibitory effect on the growth of AZ-521 tumor cell line from stomach.; format: functional, cell-based; settings: Homo sapiens
KKLS = assay: Compound was tested for its inhibitory effect on the growth of KKLS tumor cell line from stomach.; format: functional, cell-based; settings: Homo sapiens
MKN-28 = assay: Compound was tested for its inhibitory effect on the growth of MKN-28 tumor cell line from stomach.; format: functional, cell-based; settings: Homo sapiens
HCT-15 = assay: Compound was tested for its inhibitory effect on the growth of HCT-15 tumor cell line from colon.; format: functional, cell-based; settings: Homo sapiens
AZ-521 cell line [4] = assay: Compound was tested for its percentage inhibitory effect on the growth of AZ-521 tumor cell line from stomach at an iv dose of 2 mg/kg x10.; format: functional, Homo sapiens
DLD-1 [5] = assay: Compound was tested for its percentage inhibitory effect on the growth of DLD-1 tumor cell line from colon at an iv dose of 2 mg/kg x10.; format: functional, Homo sapiens
DLD-1 [6] = assay: Compound was tested for its inhibitory effect on the growth of DLD-1 tumor cell line from colon.; format: functional, cell-based; settings: Homo sapiens
HT-1080 = assay: Compound was tested for its inhibitory effect on the growth of HT1080 sarcoma tumor cell line.; format: functional, cell-based; settings: Homo sapiens
BXPC-3 [7] = assay: Compound was tested for its percentage inhibitory effect on the growth of BxPC-3 tumor cell line from […] at an iv dose of 2 mg/kg x10.; format: functional, Homo sapiens
MKN-45 = assay: Compound was tested for its inhibitory effect on the growth of MKN-45 tumor cell line from stomach.; format: functional, cell-based; settings: Homo sapiens
SW48 = assay: Compound was tested for its inhibitory effect on the growth of SW-48 tumor cell line from colon.; format: functional, cell-based; settings: Homo sapiens
Co-3 [8] = assay: Compound was tested for its percentage inhibitory effect on the growth of CO-3 tumor cell line from colon at an iv dose of 2 mg/kg x10.; format: functional, Homo sapiens
COLO 320DM = assay: Compound was tested for its inhibitory effect on the growth of COLO 320DM tumor cell line from colon.; format: functional, cell-based; settings: Homo sapiens
A549 = assay: Compound was tested for its inhibitory effect on the growth of A-549 tumor cell line from lung.; format: functional, cell-based; settings: Homo sapiens
PAM12 [9] = assay: Compound was tested for its percentage inhibitory effect on the growth of PAN-12 tumor cell line from […] at an iv dose of 2 mg/kg x10.; format: functional, Homo sapiens
KM12 [10] = assay: Compound was tested for its percentage inhibitory effect on the growth of KM12C tumor cell line from colon at an iv dose of 15 mg/kg x14.; format: functional, Homo sapiens
AZ-521 cell line [11] = assay: Compound was tested for its percentage inhibitory effect on the growth of AZ-521 tumor cell line from stomach at an iv dose of 2 mh/kg x10.; format: functional, Homo sapiens
H-81 [12] = assay: Compound was tested for its percentage inhibitory effect on the growth of H-81 tumor cell line from stomach at an iv dose of 15 mg/kg x14.; format: functional, Homo sapiens
PAM12 [13] = assay: Compound was tested for its percentage inhibitory effect on the growth of PAN-12 tumor cell line from […] at an iv dose of 15 mg/kg x14.; format: functional, Homo sapiens
BXPC-3 [14] = assay: Compound was tested for its percentage inhibitory effect on the growth of BxPC-3 tumor cell line from […] at an iv dose of 15 mg/kg x14.; format: functional, Homo sapiens
Co-3 [15] = assay: Compound was tested for its percentage inhibitory effect on the growth of CO-3 tumor cell line from colon at an iv dose of 15 mg/kg x14.; format: functional, Homo sapiens
DLD-1 [16] = assay: Compound was tested for its percentage inhibitory effect on the growth of DLD-1 tumor cell line from colon at an iv dose of 15 mg/kg x14.; format: functional, Homo sapiens

Row | Compound | IC50 (SNU-C2A) [nM] | IC50 (T-24) [nM] | IC50 (NUGC-3) [nM] | IC50 (PANC-1) [µM] | IC50 (AZ-521 cell line [3]) [nM] | IC50 (KKLS) [nM] | IC50 (MKN-28) [nM] | IC50 (HCT-15) [nM] | IC50 (DLD-1 [6]) [nM] | IC50 (HT-1080) [nM] | IC50 (MKN-45) [nM] | IC50 (SW48) [nM] | IC50 (COLO 320DM) [nM] | IC50 (A549) [nM] | other results
1 | C#C[C@]1(O)[C@@H](CO)O[C@@H](n2ccc(=O)[nH]c2=O)[C@@H]1O | 18 | 34 | 34 | 11 | 36 | 190 | 80 | 43 | 66 | 24 | 24 | 120 | 60 | 29 | Tumor inhibition ratio (H-81 [1]): 92%; Tumor inhibition ratio (KM12 [2]): 81%; Ratio (AZ-521 cell line [4]): 81; Tumor inhibition ratio (DLD-1 [5]): 73%; Tumor inhibition ratio (BXPC-3 [7]): 35%; Tumor inhibition ratio (Co-3 [8]): 90%; Tumor inhibition ratio (PAM12 [9]): 81%
2 | O=c1[nH]c(=O)n([C@@H]2O[C@H](CO)[C@@H](O)[C@H]2O)cc1F [5-FLUOROURIDINE] | 45 | 14 | 22 | 11 | 50 | 16 | 28 | 47 | 73 | 41 | 26 | 16 | 5.4 | 1900 | 
3 | O=c1[nH]c(=O)n([C@H]2C[C@H](O)[C@@H](CO)O2)cc1F [FLOXURIDINE] | 3.3 | 120 | 15 | > 40 | 50 | 760 | 120 | 49 | 92 | 120 | 3500 | 130 | 650 | 1000 | 
4 | O=c1[nH]cc(F)c(=O)[nH]1 [FLUOROURACIL] | 2700 | 22000 | 4400 | > 78 | 3900 | 6200 | 2500 | 5700 | 6000 |  | 3000 | 5700 | 1100 | 1700 | Tumor inhibition ratio (KM12 [10]): 59%; Tumor inhibition ratio (AZ-521 cell line [11]): 25%; Tumor inhibition ratio (H-81 [12]): 83%; Tumor inhibition ratio (PAM12 [13]): 40%; Tumor inhibition ratio (BXPC-3 [14]): 50%; Tumor inhibition ratio (Co-3 [15]): 49%; Tumor inhibition ratio (DLD-1 [16]): 50%
